Laboratory results as given in US8742110B2, “Spiroxazolidinone compounds” (Merck Sharp & Dohme Corp., priority 2010, dated 2014).
Where a name gives a salt, the structure may show the parent alone.

target: SSTR5 (Homo sapiens (Human), UniProt P35346); assay: SSTR5 binding assay; settings: CHO-K1 membranes expressing cloned human SSTR5
In short: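 Competition binding on membranes from CHO-K1 cells stably expressing cloned human receptor, using radiolabeled somatostatin in 50 mM Tris-HCl pH 7.8 with EGTA, MgCl2 and protease inhibitors. Unlabeled compounds tested from 0.01 nM to 10,000 nM.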

SSTR5, sequence (P35346 whole entry): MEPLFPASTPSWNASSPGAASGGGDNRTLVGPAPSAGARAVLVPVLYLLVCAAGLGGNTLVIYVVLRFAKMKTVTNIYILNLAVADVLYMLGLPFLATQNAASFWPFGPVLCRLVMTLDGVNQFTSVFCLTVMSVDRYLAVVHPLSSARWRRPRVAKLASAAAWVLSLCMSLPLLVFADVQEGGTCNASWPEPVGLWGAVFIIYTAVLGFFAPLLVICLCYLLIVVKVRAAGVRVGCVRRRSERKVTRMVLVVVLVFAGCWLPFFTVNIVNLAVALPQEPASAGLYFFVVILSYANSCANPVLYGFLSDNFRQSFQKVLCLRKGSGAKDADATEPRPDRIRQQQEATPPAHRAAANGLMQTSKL

| Structure (SMILES) | IC50 [nM] |
| --- | --- |
| CCOc1ccc(-c2ccc(F)c(F)c2F)c(CN2CCC3(CC2)CN(c2ccc(C(=O)O)cc2)C(=O)O3)c1 [Example 4-5, 4-{8-[(4-Ethoxy-2′,3′,4′-trifluorobiphenyl-2-yl)methyl]-2-oxo-1-oxa-3,8-diazaspiro[4.5]dec-3-yl}benzoic acid, TFA salt] | 0.556 |
| CCOc1cc(CN2CCC3(CC2)CN(c2ccc(C(=O)O)cc2)C(=O)O3)cc2ccc(C(F)(F)F)nc12 [Example 5-9, 4-(8-{[8-Ethoxy-2-(trifluoromethyl)quinolin-6-yl]methyl}-2-oxo-1-oxa-3,8-diazaspiro[4.5]dec-3-yl)benzoic acid, TFA salt] | 11.3 |
| O=C(O)c1ccc(N2CC3(CCN(Cc4cc(C(F)(F)F)ccc4-c4ccc(F)nc4)CC3)OC2=O)cc1 [Example 4-10, 4-{8-[2-(6-Fluoropyridin-3-yl)-5-(trifluoromethyl)benzyl]-2-oxo-1-oxa-3,8-diazaspiro[4.5]dec-3-yl}benzoic acid, TFA salt] | 1.49 |
| Cc1cc(-c2ccc(C(F)(F)F)nc2)c(CN2CCC3(CC2)CN(c2ccc(C(=O)O)cc2)C(=O)O3)cc1Cl [Example 4-26, 4-(8-{5-Chloro-4-methyl-2-[6-(trifluoromethyl)pyridin-3-yl]benzyl}-2-oxo-1-oxa-3,8-diazaspiro[4.5]dec-3-yl)benzoic acid, TFA salt] | 9.35 |
| CCOc1ccc(-c2nccs2)c(CN2CCC3(CC2)CN(c2ccc(C(=O)O)cc2)C(=O)O3)c1 [Example 4-27, 4-{8-[5-Ethoxy-2-(1,3-thiazol-2-yl)benzyl]-2-oxo-1-oxa-3,8-diazaspiro[4.5]dec-3-yl}benzoic acid, TFA salt] | 1.5 |
| Cc1cc(CN2CCC3(CC2)CN(c2ccc(C(=O)O)cc2)C(=O)O3)cc2c1OCC2(C)C [Example 5-1, 4-{2-Oxo-8-[(3,3,7-trimethyl-2,3-dihydro-1-benzofuran-5-yl)methyl]-1-oxa-3,8-diazaspiro[4.5]dec-3-yl}benzoic acid, TFA salt] | 2.38 |
| CC(C)n1nc(Cc2cc(F)c(F)cc2F)c(CN2CCC3(CC2)CN(c2ccc(C(=O)O)cc2)C(=O)O3)c1Cl [Example 1-45, 4-(8-{[5-Chloro-1-(propan-2-yl)-3-(2,4,5-trifluorobenzyl)-1H-pyrazol-4-yl]methyl}-2-oxo-1-oxa-3,8-diazaspiro[4.5]dec-3-yl)benzoic acid, TFA salt] | 23 |
| CCCn1nc(CN2CCC3(CC2)CN(c2ccc(C(=O)O)cc2)C(=O)O3)c2ccc(C#N)cc21 [Example 6-7, 4-{8-[(6-Cyano-1-propyl-1H-indazol-3-yl)methyl]-2-oxo-1-oxa-3,8-diazaspiro[4.5]dec-3-yl}benzoic acid, TFA salt] | 1200 |
| CC(C)Oc1ccc(-c2ccc(F)c(F)c2F)c(CN2CCC3(CC2)CN(c2ccc(C(=O)O)cc2)C(=O)O3)c1 [Example 4-6, 4-{8-[(4-(Prop-2-yloxy)-2′,3′,4′-trifluorobiphenyl-2-yl)methyl]-2-oxo-1-oxa-3,8-diazaspiro[4.5]dec-3-yl}benzoic acid, TFA salt] | 0.546 |
| CCOc1cc(CN2CCC3(CC2)CN(c2ccc(C(=O)O)c(Cl)c2)C(=O)O3)cc(OCC)c1-c1ccc(F)cc1 [Example 3-9, 2-Chloro-4-{8-[(2,6-diethoxy-4′-fluorobiphenyl-4-yl)methyl]-2-oxo-1-oxa-3,8-diazaspiro[4.5]dec-3-yl}benzoic acid, TFA salt] | 1.21 |
| COc1ccc(-c2nn(C(C)(C)C)cc2CN2CCC3(CC2)CN(c2ccc(C(=O)O)cc2)C(=O)O3)c(F)c1 [Example 1-32, 4-(8-{[1-tert-Butyl-3-(2-fluoro-4-methoxyphenyl)-1H-pyrazol-4-yl]methyl}-2-oxo-1-oxa-3,8-diazaspiro[4.5]dec-3-yl)benzoic acid, TFA salt] | 2.05 |
| CCCCn1cc(CN2CCC3(CC2)CN(c2ccc(C(=O)O)cc2)C(=O)O3)c2ccc(OC)cc21 [Example 6-21, 4-{8-[(6-Methoxy-1-butyl-1H-indol-3-yl)methyl]-2-oxo-1-oxa-3,8-diazaspiro[4.5]dec-3-yl}benzoic acid, TFA salt] | 11.7 |
| O=C(O)c1ccc(N2CC3(CCN(Cc4nc5ccccn5c4-c4cc(F)c(F)cc4F)CC3)OC2=O)cc1 [Example 6-36, 4-(2-Oxo-8-{[3-(2,4,5-trifluorophenyl)imidazo[1,2-a]pyridin-2-yl]methyl}-1-oxa-3,8-diazaspiro[4.5]dec-3-yl)benzoic acid, TFA salt] | 1200 |
| CC(C)n1nc(CN2CCC3(CC2)CN(c2ccc(C(=O)O)cc2)C(=O)O3)c2cc(F)ccc21 [Example 6-5, 4-(8-{[5-Fluoro-1-(propan-2-yl)-1H-indazol-3-yl]methyl}-2-oxo-1-oxa-3,8-diazaspiro[4.5]dec-3-yl)benzoic acid, TFA salt] | 149 |
| O=C(O)c1ccc(N2CC3(CCN(Cc4ccc5c(c4)OCO5)CC3)OC2=O)cc1 [Example 5-17, 4-{8-[(1,3-Benzodioxol-5-yl)methyl]-2-oxo-1-oxa-3,8-diazaspiro[4.5]dec-3-yl}benzoic acid, TFA salt] | 210 |
| O=C(O)c1ccc(N2CC3(CCN(Cc4sc(-c5ccccc5)nc4-c4ccccc4)CC3)OC2=O)cc1 [Example 6-32, 4-{8-[(2,4-Diphenyl-1,3-thiazol-5-yl)methyl]-2-oxo-1-oxa-3,8-diazaspiro[4.5]dec-3-yl}benzoic acid, TFA salt] | 69.1 |
| CCOc1ccc(-c2ccc(F)c(F)c2)c(CN2CCC3(CC2)CN(c2ccc(C(=O)O)cc2)C(=O)O3)c1 [Example 4-4, 4-{8-[(4-Ethoxy-3′,4′-difluorobiphenyl-2-yl)methyl]-2-oxo-1-oxa-3,8-diazaspiro[4.5]dec-3-yl}benzoic acid, TFA salt] | 0.502 |
| COc1ccc(-c2nn(-c3ccccc3)cc2CN2CCC3(CC2)CN(c2ccc(C(=O)O)cc2)C(=O)O3)cc1 [Example 1-9, 4-(8-{[3-(4-Methoxyphenyl)-1-phenyl-1H-pyrazol-4-yl]methyl}-2-oxo-1-oxa-3,8-diazaspiro[4.5]dec-3-yl)benzoic acid, TFA salt] | 2 |
| COc1ccc2c(CN3CCC4(CC3)CN(c3ccc(C(=O)O)cc3)C(=O)O4)cn(C)c2c1 [Example 6-19, 4-{8-[(6-Methoxy-1-methyl-1H-indol-3-yl)methyl]-2-oxo-1-oxa-3,8-diazaspiro[4.5]dec-3-yl}benzoic acid, TFA salt] | 6.79 |
| Cc1ccc(-n2cc(CN3CCC4(CC3)CN(c3ccc(C(=O)O)cc3)C(=O)O4)c(-c3ccc(F)c(F)c3F)n2)c(C)c1 [Example 1-6, 4-(8-{[1-(2,4-Dimethylphenyl)-3-(2,3,4-trifluorophenyl)-1H-pyrazol-4-yl]methyl}-2-oxo-1-oxa-3,8-diazaspiro[4.5]dec-3-yl)benzoic acid, TFA salt] | 1.54 |
| CC(C)(C)c1nc(-c2cc(F)c(F)cc2F)c(CN2CCC3(CC2)CN(c2ccc(C(=O)O)cc2)C(=O)O3)s1 [Example 6-35, 4-(8-{[2-tert-Butyl-4-(2,4,5-trifluorophenyl)-1,3-thiazol-5-yl]methyl}-2-oxo-1-oxa-3,8-diazaspiro[4.5]dec-3-yl)benzoic acid, TFA salt] | 1.74 |
| CCOc1cc(CN2CCC3(CC2)CN(c2ccc(C(=O)O)cc2)C(=O)O3)cc2cnc(C(F)(F)F)cc12 [Example 5-8, 4-(8-{[5-Ethoxy-3-(trifluoromethyl)isoquinolin-7-yl]methyl}-2-oxo-1-oxa-3,8-diazaspiro[4.5]dec-3-yl)benzoic acid, TFA salt] | 0.424 |
| CCOc1cc(CN2CCC3(CC2)CN(c2ccc(C(=O)O)c(OC)c2)C(=O)O3)c(-c2ccc(F)c(F)c2F)cc1C [Example 4-18, 4-{8-[(4-Ethoxy-2′,3′,4′-trifluoro-5-methylbiphenyl-2-yl)methyl]-2-oxo-1-oxa-3,8-diazaspiro[4.5]dec-3-yl}-2-methoxybenzoic acid, TFA salt] | 0.228 |
| CC(C)(C)n1cc(CN2CC3(C2)CN(c2ccc(C(=O)O)cc2)C(=O)O3)c(-c2ccc(F)c(F)c2F)n1 [Example 2-9, 4-(2-{[1-tert-Butyl-3-(2,3,4-trifluorophenyl)-1H-pyrazol-4-yl]methyl}-6-oxo-5-oxa-2,7-diazaspiro[3.4]oct-7-yl)benzoic acid, TFA salt] | 14.9 |
| CCOc1cc(CN2CCC3(CC2)CN(c2ccc(C(=O)O)nc2)C(=O)O3)cc(OCC)c1-c1ccc(F)cc1 [Example 3-4, 5-{8-[(2,6-Diethoxy-4′-fluorobiphenyl-4-yl)methyl]-2-oxo-1-oxa-3,8-diazaspiro[4.5]dec-3-yl}pyridine-2-carboxylic acid, TFA salt] | 1.4 |
| O=C(O)c1ccc(N2CC3(CCN(Cc4cn(C5CCCCC5)nc4-c4ccc(F)c(Cl)c4)CC3)OC2=O)cc1 [Example 1-2, 4-(8-{[3-(3-Chloro-4-fluorophenyl)-1-cyclohexyl-1H-pyrazol-4-yl]methyl}-2-oxo-1-oxa-3,8-diazaspiro[4.5]dec-3-yl)benzoic acid, TFA salt] | 0.943 |
| CCOc1cc(CN2CCC3(CC2)CN(c2ccc(C(=O)O)cc2)C(=O)O3)cc2c(OC)cc(Cl)cc12 [Example 5-5, 4-{8-[(6-Chloro-4-ethoxy-8-methoxynaphthalen-2-yl)methyl]-2-oxo-1-oxa-3,8-diazaspiro[4.5]dec-3-yl}benzoic acid, TFA salt] | 0.65 |
| CC(C)(C)n1cc(CN2CCC3(CC2)CN(c2ccc(C(=O)O)cc2)C(=O)O3)c(-c2c(F)cc(F)cc2F)n1 [Example 1-8, 4-(8-{[1-tert-Butyl-3-(2,4,6-trifluorophenyl)-1H-pyrazol-4-yl]methyl}-2-oxo-1-oxa-3,8-diazaspiro[4.5]dec-3-yl)benzoic acid, TFA salt] | 2.16 |
| CCOc1cc(CN2CCC3(CC2)CN(c2cccc(C(=O)O)c2)C(=O)O3)cc(OCC)c1-c1ccc(F)cc1 [Example 3-14, 3-{8-[(2,6-Diethoxy-4′-fluorobiphenyl-4-yl)methyl]-2-oxo-1-oxa-3,8-diazaspiro[4.5]dec-3-yl}benzoic acid, TFA salt] | 9.15 |
| CCCCn1cc(CN2CCC3(CC2)CN(c2ccc(C(=O)O)cc2)C(=O)O3)c(-c2ccc(F)c(F)c2F)n1 [Example 1-18, 4-(8-{[1-Butyl-3-(2,3,4-trifluorophenyl)-1H-pyrazol-4-yl]methyl}-2-oxo-1-oxa-3,8-diazaspiro[4.5]dec-3-yl)benzoic acid, TFA salt] | 2.7 |
